Experimental findings from publication PMC6531005 (Science Advances, 2019) are described below.

Holding throughout (format): biochemical
One assay has as its target CDC7 kinase (Homo sapiens, UniProt O00311). In words: TR-FRET. In general terms: In TR-FRET formats the signal depends on donor and acceptor labels being close together.
Another assay deals with CDK2 kinase (Homo sapiens, UniProt P24941). Kind of assay: enzymatic kinase inhibition assay, CDK2/cyclin E.
A further assay has as its target CDK9 (Homo sapiens, UniProt P50750). Kind of assay: SelectScreen kinase selectivity panel.

CDC7 kinase, sequence (O00311 whole entry): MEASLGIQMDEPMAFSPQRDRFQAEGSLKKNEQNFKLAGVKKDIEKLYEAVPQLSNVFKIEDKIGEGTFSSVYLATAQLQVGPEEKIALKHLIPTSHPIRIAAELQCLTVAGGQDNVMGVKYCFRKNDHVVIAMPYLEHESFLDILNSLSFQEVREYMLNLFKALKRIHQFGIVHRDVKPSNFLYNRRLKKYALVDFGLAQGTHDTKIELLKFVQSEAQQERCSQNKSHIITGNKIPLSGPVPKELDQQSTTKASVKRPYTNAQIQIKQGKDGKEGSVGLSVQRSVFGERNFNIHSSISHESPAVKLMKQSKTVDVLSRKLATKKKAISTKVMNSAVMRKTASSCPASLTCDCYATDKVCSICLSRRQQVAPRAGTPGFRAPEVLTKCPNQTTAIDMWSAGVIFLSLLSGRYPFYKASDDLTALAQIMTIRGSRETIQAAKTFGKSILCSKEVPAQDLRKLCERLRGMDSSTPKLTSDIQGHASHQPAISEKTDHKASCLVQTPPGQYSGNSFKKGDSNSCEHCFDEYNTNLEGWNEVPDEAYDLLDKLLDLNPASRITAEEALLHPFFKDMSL
CDC7 kinase, sequence (Q9UBU7 whole entry partner): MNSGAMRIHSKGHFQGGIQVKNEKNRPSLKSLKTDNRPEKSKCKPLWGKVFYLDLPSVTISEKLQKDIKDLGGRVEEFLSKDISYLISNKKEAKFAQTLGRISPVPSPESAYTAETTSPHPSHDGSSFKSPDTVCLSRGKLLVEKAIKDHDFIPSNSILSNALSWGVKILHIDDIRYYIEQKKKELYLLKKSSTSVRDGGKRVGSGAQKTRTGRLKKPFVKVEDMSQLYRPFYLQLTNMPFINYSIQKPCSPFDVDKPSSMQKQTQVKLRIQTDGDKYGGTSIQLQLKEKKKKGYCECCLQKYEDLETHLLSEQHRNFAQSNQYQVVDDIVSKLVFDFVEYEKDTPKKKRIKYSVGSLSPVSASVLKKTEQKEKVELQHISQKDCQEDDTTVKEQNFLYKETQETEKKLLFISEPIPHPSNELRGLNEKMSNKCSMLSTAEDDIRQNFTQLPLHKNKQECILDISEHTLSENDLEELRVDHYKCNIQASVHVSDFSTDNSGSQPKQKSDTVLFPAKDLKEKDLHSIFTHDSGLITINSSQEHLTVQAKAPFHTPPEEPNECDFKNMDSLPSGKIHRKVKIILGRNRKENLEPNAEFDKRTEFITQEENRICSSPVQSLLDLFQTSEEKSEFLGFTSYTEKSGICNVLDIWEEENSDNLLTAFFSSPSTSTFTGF
CDK9, sequence (P50750 whole entry): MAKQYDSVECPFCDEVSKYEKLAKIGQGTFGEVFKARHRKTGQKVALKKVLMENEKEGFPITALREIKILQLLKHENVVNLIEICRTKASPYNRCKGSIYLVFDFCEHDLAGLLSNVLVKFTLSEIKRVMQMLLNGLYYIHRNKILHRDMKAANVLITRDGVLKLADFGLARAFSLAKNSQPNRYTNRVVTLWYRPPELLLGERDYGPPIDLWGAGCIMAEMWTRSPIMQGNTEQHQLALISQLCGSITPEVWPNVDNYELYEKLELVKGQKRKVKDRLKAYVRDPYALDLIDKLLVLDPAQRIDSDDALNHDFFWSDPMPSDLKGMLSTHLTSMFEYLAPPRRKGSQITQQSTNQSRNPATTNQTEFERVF

On to `Cc1n[nH]cc1-c1cc2nc([C@@H]3CC4CCN3CC4)[nH]c(=O)c2s1` [TAK-931, 2-[(2S)-1-azabicyclo[2.2.2]oct-2-yl]-6-(3-methyl-1H-pyrazol-4-yl)thieno[3,2-d]pyrimidin-4(3H)-one hemihydrate], for which the IC50 (in general, the point on the concentration scale where inhibition reaches its midpoint) was < 0.0003 µM against CDC7 kinase and 6.3 µM at CDK2 kinase. Moreover, the “SelectScreen kinase selectivity panel (fig. S1B)” value on CDK9 is on record as “CDK9, which is the second high-affinity target of TAK-931 (fig. S1B)”.
